In brackets after ≈: the same amount, converted by molar mass.
Key:
Assay type in all cases: cell-based
[1] = test system: A. baumannii MP-15; assay: MIC determination by CLSI broth dilution, A. baumannii MP-15; conditions: Acinetobacter baumannii, MP15, strain MP-15, read-out: MIC A. baumanii MP-15
[2] = test system: S. aureus MP-12; assay: microbe, parasite or virus in culture; conditions: Staphylococcus aureus, MP12, read-out: MIC S. aureus MP-12
[3] = test system: P. aeruginosa MP-3; assay: MIC determination by CLSI broth dilution, P. aeruginosa MP-3; conditions: Pseudomonas aeruginosa, MP3, strain MP-3
[4] = test system: K. pneumoniae MP-546; assay: MIC determination by CLSI broth dilution, K. pneumoniae MP-546; conditions: Klebsiella pneumoniae, MP546, CLSI broth dilution; strain MP-546
[5] = test system: E. coli MP-4; assay: MIC determination by CLSI broth dilution, E. coli MP-4; conditions: Escherichia coli, MP4, CLSI broth dilution; strain MP-4
[6] = test system: K. pneumoniae MP-648; assay: MIC determination by CLSI broth dilution, K. pneumoniae MP-648; conditions: Klebsiella pneumoniae, MP648, CLSI broth dilution; strain MP-648

Compound | MIC [1] [µg/mL] | MIC [2] [µg/mL] | MIC [3] [µg/mL] | MIC [4] [µg/mL] | MIC [5] [µg/mL] | MIC [6] [µg/mL]
CCN1CCC(C[C@@H]2COC(=O)C(C)(C)C(=O)[C@H](C)[C@@H](O[C@@H]3O[C@H](C)C[C@H](N(C)C)[C@H]3O)[C@](C)(OC)C[C@@H](C)CN2CC)CC1 [Compound 118, (3R,6R,8R,9R,10R)-9-(((2S,3R,4S,6R)-4-(dimethylamino)-3-hydroxy-6-methyltetrahydro-2H-pyran-2-yl)oxy)-4-ethyl-3-((1-ethylpiperidin-4-yl)methyl)-8-methoxy-6,8,10,12,12-pentamethyl-1-oxa-4-azacyclotridecane-11,13-dione] | 4 to 32 (≈ 6.25 to 50 µM) | 4 to 32 (≈ 6.25 to 50 µM) | > 32 | < 4 | < 4 | < 4
CO[C@]1(C)C[C@@H](C)CN(C)[C@@H](CCCN2CCc3ccccc3C2)COC(=O)C(C)(C)C(=O)[C@H](C)[C@H]1O[C@@H]1O[C@H](C)C[C@H](N(C)C)[C@H]1O [Compound 120, (3S,6R,8R,9R,10R)-3-(3-(3,4-dihydroisoquinolin-2 (1H)-yl)propyl)-9-(((2S,3R,4S,6R)-4-(dimethylamino)-3-hydroxy-6-methyltetrahydro-2H-pyran-2-yl)oxy)-8-methoxy-4,6,8,10,12,12-hexamethyl-1-oxa-4-azacyclotridecane-11,13-dione] | 4 to 32 (≈ 5.94 to 47.5 µM) | < 4 | > 32 | < 4 | < 4 | < 4
CO[C@]1(C)C[C@@H](C)CN(CC(C)C)[C@@H](CCCN2CCCCC2)COC(=O)C(C)(C)C(=O)[C@H](C)[C@H]1O[C@@H]1O[C@H](C)C[C@H](N(C)C)[C@H]1O [Compound 121, (3S,6R,8R,9R,10R)-9-(((2S,3R,4S,6R)-4-(dimethylamino)-3-hydroxy-6-methyltetrahydro-2H-pyran-2-yl)oxy)-4-isobutyl-8-methoxy-6,8,10,12,12-pentamethyl-3-(3-(piperidin-1-yl)propyl)-1-oxa-4-azacyclotridecane-11,13-dione] | > 32 | 4 to 32 (≈ 5.99 to 47.9 µM) | > 32 | 4 to 32 (≈ 5.99 to 47.9 µM) | < 4 | 4 to 32 (≈ 5.99 to 47.9 µM)
CO[C@]1(C)C[C@@H](C)CN(C)[C@@H](CCCN2CCC[C@H]2C)COC(=O)C(C)(C)C(=O)[C@H](C)[C@H]1O[C@@H]1O[C@H](C)C[C@H](N(C)C)[C@H]1O [Compound 122, (3S,6R,8R,9R,10R)-9-(((2S,3R,4S,6R)-4-(dimethylamino)-3-hydroxy-6-methyltetrahydro-2H-pyran-2-yl)oxy)-8-methoxy-4,6,8,10,12,12-hexamethyl-3-(3-((R)-2-methylpyrrolidin-1-yl)propyl)-1-oxa-4-azacyclotridecane-11,13-dione] | > 32 | 4 to 32 (≈ 6.39 to 51.1 µM) | > 32 | < 4 | < 4 | < 4
CO[C@]1(C)C[C@@H](C)CN(C)[C@@H](CCCN2CCC[C@@H]2C(F)(F)F)COC(=O)C(C)(C)C(=O)[C@H](C)[C@H]1O[C@@H]1O[C@H](C)C[C@H](N(C)C)[C@H]1O [Compound 123, (3S,6R,8R,9R,10R)-9-(((2S,3R,4S,6R)-4-(dimethylamino)-3-hydroxy-6-methyltetrahydro-2H-pyran-2-yl)oxy)-8-methoxy-4,6,8,10,12,12-hexamethyl-3-(3-((R)-2-(trifluoromethyl)pyrrolidin-1-yl)propyl)-1-oxa-4-azacyclotridecane-11,13-dione] | > 32 | > 32 | > 32 | > 32 | > 32 | > 32
CO[C@]1(C)C[C@@H](C)CN(C)[C@@H](CCCN2CC[C@H](F)C2)COC(=O)C(C)(C)C(=O)[C@H](C)[C@H]1O[C@@H]1O[C@H](C)C[C@H](N(C)C)[C@H]1O [Compound 125, (3S,6R,8R,9R,10R)-9-(((2S,3R,4S,6R)-4-(dimethylamino)-3-hydroxy-6-methyltetrahydro-2H-pyran-2-yl)oxy)-3-(3-((S)-3-fluoropyrrolidin-1-yl)propyl)-8-methoxy-4,6,8,10,12,12-hexamethyl-1-oxa-4-azacyclotridecane-11,13-dione] | > 32 | 4 to 32 (≈ 6.35 to 50.8 µM) | > 32 | < 4 | < 4 | 4 to 32 (≈ 6.35 to 50.8 µM)
CCCN1C[C@H](C)C[C@@](C)(OC)[C@H](O[C@@H]2O[C@H](C)C[C@H](N(C)C)[C@H]2O)[C@@H](C)C(=O)C(C)(C)C(=O)OC[C@@H]1CCCN1Cc2ccccc2C1 [Compound 126, (3S,6R,8R,9R,10R)-9-(((2S,3R,4S,6R)-4-(dimethylamino)-3-hydroxy-6-methyltetrahydro-2H-pyran-2-yl)oxy)-3-(3-(isoindolin-2-yl)propyl)-8-methoxy-6,8,10,12,12-pentamethyl-4-propyl-1-oxa-4-azacyclotridecane-11,13-dione] | 4 to 32 (≈ 5.81 to 46.5 µM) | < 4 | > 32 | < 4 | < 4 | < 4
CCCN1C[C@H](C)C[C@@](C)(OC)[C@H](O[C@@H]2O[C@H](C)C[C@H](N(C)C)[C@H]2O)[C@@H](C)C(=O)C(C)(C)C(=O)OC[C@@H]1CCCN1CCCC1 [Compound 127, (3S,6R,8R,9R,10R)-9-(((2S,3R,4S,6R)-4-(dimethylamino)-3-hydroxy-6-methyltetrahydro-2H-pyran-2-yl)oxy)-8-methoxy-6,8,10,12,12-pentamethyl-4-propyl-3-(3-(pyrrolidin-1-yl)propyl)-1-oxa-4-azacyclotridecane-11,13-dione] | > 32 | 4 to 32 (≈ 6.25 to 50 µM) | > 32 | < 4 | < 4 | < 4
CO[C@]1(C)C[C@@H](C)CN(C)[C@@H](CCCN2CCC(C)(C)CC2)COC(=O)C(C)(C)C(=O)[C@H](C)[C@H]1O[C@@H]1O[C@H](C)C[C@H](N(C)C)[C@H]1O [Compound 128, (3S,6R,8R,9R,10R)-9-(((2S,3R,4S,6R)-4-(dimethylamino)-3-hydroxy-6-methyltetrahydro-2H-pyran-2-yl)oxy)-3-(3-(4,4-dimethylpiperidin-1-yl)propyl)-8-methoxy-4,6,8,10,12,12-hexamethyl-1-oxa-4-azacyclotridecane-11,13-dione] | > 32 | 4 to 32 (≈ 6.12 to 48.9 µM) | > 32 | < 4 | < 4 | < 4
CCN1C[C@H](C)C[C@@](C)(OC)[C@H](O[C@@H]2O[C@H](C)C[C@H](N(C)C)[C@H]2O)[C@@H](C)C(=O)C(C)(C)C(=O)OC[C@@H]1CCCN1CCCCC1 [Compound 129, (3S,6R,8R,9R,10R)-9-(((2S,3R,4S,6R)-4-(dimethylamino)-3-hydroxy-6-methyltetrahydro-2H-pyran-2-yl)oxy)-4-ethyl-8-methoxy-6,8,10,12,12-pentamethyl-3-(3-(piperidin-1-yl)propyl)-1-oxa-4-azacyclotridecane-11,13-dione] | > 32 | 4 to 32 (≈ 6.25 to 50 µM) | > 32 | < 4 | < 4 | < 4
CO[C@]1(C)C[C@@H](C)CN(C)[C@H](C[C@H]2C[C@H](N(C)CC3CC3)C2)COC(=O)C(C)(C)C(=O)[C@H](C)[C@H]1O[C@@H]1O[C@H](C)C[C@H](N(C)C)[C@H]1O [Compound 138, (3R,6R,8R,9R,10R)-3-(((1r,3S)-3-((cyclopropylmethyl)(methyl)amino)cyclobutyl)methyl)-9-(((2S,3R,4S,6R)-4-(dimethylamino)-3-hydroxy-6-methyltetrahydro-2H-pyran-2-yl)oxy)-8-methoxy-4,6,8,10,12,12-hexamethyl-1-oxa-4-azacyclotridecane-11,13-dione] | > 32 | < 4 | > 32 | < 4 | < 4 | < 4
CCN1C[C@H](C)C[C@@](C)(OC)[C@H](O[C@@H]2O[C@H](C)C[C@H](N(C)C)[C@H]2O)[C@@H](C)C(=O)C(C)(C)C(=O)OC[C@H]1CCCN1CCCCC1 [Compound 140, (3R,6R,8R,9R,10R)-9-(((2S,3R,4S,6R)-4-(dimethylamino)-3-hydroxy-6-methyltetrahydro-2H-pyran-2-yl)oxy)-4-ethyl-8-methoxy-6,8,10,12,12-pentamethyl-3-(3-(piperidin-1-yl)propyl)-1-oxa-4-azacyclotridecane-11,13-dione] | > 32 | 4 to 32 (≈ 6.25 to 50 µM) | > 32 | < 4 | < 4 | < 4
CO[C@]1(C)C[C@@H](C)CN(CC(C)C)[C@@H](CCCN2CCc3ccccc3C2)COC(=O)C(C)(C)C(=O)[C@H](C)[C@H]1O[C@@H]1O[C@H](C)C[C@H](N(C)C)[C@H]1O [Compound 141, (3S,6R,8R,9R,10R)-3-(3-(3,4-dihydroisoquinolin-2 (1H)-yl)propyl)-9-(((2S,3R,4S,6R)-4-(dimethylamino)-3-hydroxy-6-methyltetrahydro-2H-pyran-2-yl)oxy)-4-isobutyl-8-methoxy-6,8,10,12,12-pentamethyl-1-oxa-4-azacyclotridecane-11,13-dione] | > 32 | < 4 | > 32 | < 4 | < 4 | 4 to 32 (≈ 5.59 to 44.7 µM)
CCCN1C[C@H](C)C[C@@](C)(OC)[C@H](O[C@@H]2O[C@H](C)C[C@H](N(C)C)[C@H]2O)[C@@H](C)C(=O)C(C)(C)C(=O)OC[C@H]1CCCN1CCCC1 [Compound 144, (3R,6R,8R,9R,10R)-9-(((2S,3R,4S,6R)-4-(dimethylamino)-3-hydroxy-6-methyltetrahydro-2H-pyran-2-yl)oxy)-8-methoxy-6,8,10,12,12-pentamethyl-4-propyl-3-(3-(pyrrolidin-1-yl)propyl)-1-oxa-4-azacyclotridecane-11,13-dione] | > 32 | < 4 | < 4 | < 4 | < 4 | < 4

Source: patent publication US12552825B2 (Zikani Therapeutics, Inc., priority 2019, dated 2026)
